Laboratory results taken from patent publication US20180298344A1, “Realistic Humanized Model of Disease Matrix Environment for Evaluation of Therapeutic Reversal or Cell Fate” (Yale University, priority 2017, published 2018).

Tested on: human microvascular pericytes (PC)
Experiment: Long-term (28 day) differentiation of PC on glass coverslips: matrix deposition, fibrotic lesions, α-SMA and vimentin
Type: cell-based
Settings: for increase in the formation of lesions compared with nonactivated control: glass
Procedure: Human microvascular PC were isolated from a readily available and nearly inexhaustible source, human placental tissue, by microvascular segment explant outgrowth (Sava et al., Microcirculation, 2015, 22:54-67; Ayres-Sander et al., PLoS One, 2013, 8:e60025; Lauridsen et al., FASEB, 2014, 28:1166-1180; Maier et al., Microcirculation, 2010, 17:367-380). Human placental tissue was segmented, digested with collagenase, and the resulting cells were cultured in M199 (Gibco, Grand Island, NY, USA) medium supplemented with 20% FBS (Hyclone Laboratories, Logan, Utah, USA), and 1% penicillin-streptomycin (Gibco). Isolated pericytes were screened by flow cytometry against NG2 (H-300, Santa Cruz Biotechnology), CD90 (K-15, Santa Cruz), CD146 (P1H12, Biolegend, San Diego, Calif., USA), PDGFR-β (18A2, Santa Cruz), α-SMA (1A4, Santa Cruz), SMMHC (N-16, Santa Cruz), CD31 (C20, Santa Cruz), CD34 (581, Sigma) and CD45 (MEM-28, Sigma). As negative control, PC were incubated with isotype matched IgG. Samples were run on a Stratedigm S1000EXi Flow Cytometer (Stratedigm, San Jose, Calif. USA) and analyzed with FlowJo software (Tree Star, Ashland, Oreg., USA).
For short term (7 day) differentiation studies, PC (passage 3-7) were seeded on healthy or IPF lung tissue slices, polyacrylamide hydrogels, or 25 mm glass coverslips (VWR) at 100×10^3 cells per sample and activated with control media (non-activated), or 1 ng/mL TGF-β1 (PeproTech, Rocky Hill, N.J., USA) for 7 days (18, 19). For bleomycin activation, the cells were activated with 1 μg/mL bleomycin sulfate (Cayman Chemical, Ann Arbor, Mich.) for 1 day and the media was replaced with non-activated media for the remaining 6 days (Sava et al., Microcirculation, 2015, 22:54-67; Sterling et al., J Bio Chem, 1983, 258:14438-14444). TGF-β1 and bleomycin concentrations were based on reports consistent with activation of fibroblasts (Sava et al., Microcirculation, 2015, 22:54-67; Maroni and Davis, Bio Reprod, 2012, 87:127). Treatment with CCG-1423 (Sigma) was performed at day 0 for the full 7 days, and labeled as early treatment, or at day 7 and performed for 7 days, and labeled as late treatment. For long-term (28 day) differentiation studies, PC were cultured on 25 mm glass coverslips (VWR) or normal lung sections and the cell media was supplemented with 100 μM ascorbic acid (Spectrum Chemicals, New Brunswick, N.J., USA) to induce matrix deposition. Activation was performed with control media (non-activated), or 1 ng/mL TGF-β1. The media was replaced 3 times a week for 4 consecutive weeks (28 days) in order to mimic the chronic conditions present during fibrosis (Moeller et al., Int J Biochem Cell Biol, 2008, 40:362-382; Sava et al., Microcirculation, 2015, 22:54-67). Treatment with nintedanib (Santa Cruz) was performed at day 21 for the remaining 7 days, and labeled as early treatment, or at day 28 and performed for 2 days, and labeled as late treatment. Concentrations of CCG-1423 (1.0 nM), and nintedanib (1.0 nM) are based on therapeutic dose in studies performed on myofibroblasts (Evelyn et al., Mol Cancer Ther, 2007, 6:2249-2260, Hostettler et al., Resp Res, 2014, 15:157; Conte et al., Eur J Pharm Sci, 2014, 58:13-19; Shi et al., PLoS One, 2011, 6:e28134).
Pericyte pro-fibrotic activation/transition/phenotype was evaluated by positive staining for α-smooth muscle actin (SMA) using anti-α-SMA (1A4, Santa Cruz) and anti-vimentin (V630, Sigma). For matrix composition analysis, the coverslips were stained with anti-collagen I (ab233446, Abcam, Cambridge, Mass., USA), anti-laminin (Clone ab11575, Abcam), anti-collagen IV (Clone C1926, Sigma), or anti-fibronectin (Clone F3648, Sigma) antibodies.

[1] = nintedanib 7 days, TGF-β1-activated PC on glass, flow cytometry

Molecule: COC(=O)c1ccc2c(c1)NC(=O)/C2=C(\Nc1ccc(N(C)C(=O)CN2CCN(C)CC2)cc1)c1ccccc1 [nintedanib]
- expression of vimentin [1]: without affecting
- expression of α-SMA [1]: without affecting
- fibrotic node formation (nintedanib 7 days, TGF-β1-activated PC on glass, versus TGF-β1): reduced
- fibronectin (nintedanib 7 days, TGF-β1-activated PC on glass, versus TGF-β1, immunoblotting, P=0.002): reduced
- collagen I (nintedanib 7 days, TGF-β1-activated PC on glass, versus TGF-β1, immunoblotting, P=0.01): reduced

Molecule: TGF-β1: transforming growth factor (TGF)-β1, fibrotic activator, used at 1 ng/mL
- increase in the formation of lesions compared with nonactivated control (day 14 of TGF-β1 exposure, P<0.001): 2.2 fold
- increase in the formation of lesions compared with nonactivated control (day 28 of TGF-β1 exposure, P<0.01): 1.8 fold
- vimentin expression compared with nonactivated control (long-term TGF-β1 activation on glass, P<0.0001): significant increase
- α-SMA expression compared with nonactivated control (long-term TGF-β1 activation on glass, P=0.011): significant increase
